Test results as given in ChEMBL document CHEMBL4622956, “Amide derivatives of Gallic acid: Design, synthesis and evaluation of inhibitory activities against in vitro α-synuclein aggregation” (Bioorg Med Chem, 2020).
pIC50: −log10 of the molar value.

Biological target: Alpha-synuclein (Homo sapiens, UniProt P37840)
Test: Inhibition of alpha-synuclein (unknown origin) aggregation incubated for 3 days by thioflavin T based fluorescence assay

`O=C(O)c1cc(O)c(O)c(O)c1` [GALLIC ACID] showed a pIC50 of 5.35.
